Results reported in PubChem BioAssay (NCI).
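Briefly, cells in 96-well plates were exposed to five compound concentrations for 48 h, and endpoints were estimated by linear interpolation. At the GI50, growth is halved. TGI: total growth inhibition.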

How the values were obtained:
Test in all cases: growth of human tumour cells (NCI), 48 h
HCC-2998 colon = system: HCC-2998 colon
ACHN renal = system: ACHN renal
OVCAR-4 ovarian = system: OVCAR-4 ovarian
MDA-MB-435 = system: MDA-MB-435
MOLT-4 leukemia = system: MOLT-4 leukemia
U251 CNS = system: U251 CNS
RPMI-8226 leukemia = system: RPMI-8226 leukemia
COLO 205 colon = system: COLO 205 colon
SF-539 CNS = system: SF-539 CNS
TK-10 renal = system: TK-10 renal
SK-MEL-5 melanoma = system: SK-MEL-5 melanoma
K-562 leukemia = system: K-562 leukemia
NCI-H23 lung = system: NCI-H23 lung
CAKI-1 renal = system: CAKI-1 renal
HCT-15 colon = system: HCT-15 colon
NCI-H460 lung = system: NCI-H460 lung
DU-145 prostate = system: DU-145 prostate
OVCAR-8 ovarian = system: OVCAR-8 ovarian
A549 NSCLC = system: A549 NSCLC
CCRF-CEM leukemia = system: CCRF-CEM leukemia
BT-549 breast = system: BT-549 breast
SNB-19 CNS = system: SNB-19 CNS
A498 renal = system: A498 renal
SNB-75 CNS = system: SNB-75 CNS
MCF7 breast = system: MCF7 breast
UACC-62 melanoma = system: UACC-62 melanoma
HT29 colon = system: HT29 colon
LOX IMVI melanoma = system: LOX IMVI melanoma
HS 578T breast = system: HS 578T breast
HCT-116 colon = system: HCT-116 colon
M14 melanoma = system: M14 melanoma
OVCAR-3 ovarian = system: OVCAR-3 ovarian
MDA-MB-231 breast = system: MDA-MB-231 breast
SK-OV-3 ovarian = system: SK-OV-3 ovarian
HOP-92 NSCLC = system: HOP-92 NSCLC
HOP-62 NSCLC = system: HOP-62 NSCLC
KM12 colon = system: KM12 colon
UO-31 renal = system: UO-31 renal
MALME-3M melanoma = system: MALME-3M melanoma
NCI-H226 lung = system: NCI-H226 lung
PC-3 prostate = system: PC-3 prostate
NCI-H522 lung = system: NCI-H522 lung
786-0 renal = system: 786-0 renal
OVCAR-5 ovarian = system: OVCAR-5 ovarian
SK-MEL-28 melanoma = system: SK-MEL-28 melanoma
UACC-257 melanoma = system: UACC-257 melanoma
NCI/ADR-RES ovarian = system: NCI/ADR-RES ovarian
EKVX NSCLC = system: EKVX NSCLC
SK-MEL-2 melanoma = system: SK-MEL-2 melanoma
SF-268 CNS = system: SF-268 CNS
SF-295 CNS = system: SF-295 CNS
SW-620 colon = system: SW-620 colon
SR leukemia = system: SR leukemia
RXF 393 renal = system: RXF 393 renal

Compound: O=C(/C=C1\C(=O)N(Cc2ccc([N+](=O)[O-])cc2)c2ccccc21)c1ccc(OCCN2CCCCC2)cc1
- GI50 (HCC-2998 colon): 1570 nM
- TGI (HCC-2998 colon): 2930 nM
- GI50 (ACHN renal): 1160 nM
- TGI (ACHN renal): 2380 nM
- GI50 (OVCAR-4 ovarian): 1470 nM
- TGI (OVCAR-4 ovarian): 2830 nM
- GI50 (MDA-MB-435): 1200 nM
- TGI (MDA-MB-435): 2520 nM
- GI50 (MOLT-4 leukemia): 456 nM
- TGI (MOLT-4 leukemia): 2730 nM
- GI50 (U251 CNS): 1720 nM
- TGI (U251 CNS): 3090 nM
- GI50 (RPMI-8226 leukemia): 1350 nM
- TGI (RPMI-8226 leukemia): 4130 nM
- GI50 (COLO 205 colon): 1640 nM
- TGI (COLO 205 colon): 3270 nM
- GI50 (SF-539 CNS): 1530 nM
- TGI (SF-539 CNS): 2890 nM
- GI50 (TK-10 renal): 1430 nM
- TGI (TK-10 renal): 2740 nM
- GI50 (SK-MEL-5 melanoma): 1670 nM
- TGI (SK-MEL-5 melanoma): 3040 nM
- GI50 (K-562 leukemia): 415 nM
- TGI (K-562 leukemia): 2200 nM
- GI50 (NCI-H23 lung): 1470 nM
- TGI (NCI-H23 lung): 2970 nM
- GI50 (CAKI-1 renal): 1070 nM
- TGI (CAKI-1 renal): 2260 nM
- GI50 (HCT-15 colon): 1190 nM
- TGI (HCT-15 colon): 2480 nM
- GI50 (NCI-H460 lung): 1870 nM
- TGI (NCI-H460 lung): 3680 nM
- GI50 (DU-145 prostate): 1560 nM
- TGI (DU-145 prostate): 2930 nM
- GI50 (OVCAR-8 ovarian): 2210 nM
- TGI (OVCAR-8 ovarian): 4800 nM
- GI50 (A549 NSCLC): 1680 nM
- TGI (A549 NSCLC): 3280 nM
- GI50 (CCRF-CEM leukemia): 323 nM
- TGI (CCRF-CEM leukemia): 2350 nM
- GI50 (BT-549 breast): 1640 nM
- TGI (BT-549 breast): 3000 nM
- GI50 (SNB-19 CNS): 1560 nM
- TGI (SNB-19 CNS): 2920 nM
- GI50 (A498 renal): 4090 nM
- TGI (A498 renal): 18000 nM
- GI50 (SNB-75 CNS): 2220 nM
- TGI (SNB-75 CNS): 11300 nM
- GI50 (MCF7 breast): 1430 nM
- TGI (MCF7 breast): 4100 nM
- GI50 (UACC-62 melanoma): 1440 nM
- TGI (UACC-62 melanoma): 2790 nM
- GI50 (HT29 colon): 1400 nM
- TGI (HT29 colon): 2880 nM
- GI50 (LOX IMVI melanoma): 1400 nM
- TGI (LOX IMVI melanoma): 2780 nM
- GI50 (HS 578T breast): 1710 nM
- TGI (HS 578T breast): 6090 nM
- GI50 (HCT-116 colon): 366 nM
- TGI (HCT-116 colon): 1430 nM
- GI50 (M14 melanoma): 1590 nM
- TGI (M14 melanoma): 3110 nM
- GI50 (OVCAR-3 ovarian): 1250 nM
- TGI (OVCAR-3 ovarian): 2570 nM
- GI50 (MDA-MB-231 breast): 1300 nM
- TGI (MDA-MB-231 breast): 2670 nM
- GI50 (SK-OV-3 ovarian): 2780 nM
- TGI (SK-OV-3 ovarian): 11700 nM
- GI50 (HOP-92 NSCLC): 1070 nM
- TGI (HOP-92 NSCLC): 2370 nM
- GI50 (HOP-62 NSCLC): 2120 nM
- TGI (HOP-62 NSCLC): 6320 nM
- GI50 (KM12 colon): 1810 nM
- TGI (KM12 colon): 3540 nM
- GI50 (UO-31 renal): 1400 nM
- TGI (UO-31 renal): 2700 nM
- GI50 (MALME-3M melanoma): 1220 nM
- TGI (MALME-3M melanoma): 2740 nM
- GI50 (NCI-H226 lung): 3140 nM
- TGI (NCI-H226 lung): 21400 nM
- GI50 (PC-3 prostate): 1740 nM
- TGI (PC-3 prostate): 3520 nM
- GI50 (NCI-H522 lung): 614 nM
- TGI (NCI-H522 lung): 1990 nM
- GI50 (786-0 renal): 1290 nM
- TGI (786-0 renal): 2610 nM
- GI50 (OVCAR-5 ovarian): 1330 nM
- TGI (OVCAR-5 ovarian): 3090 nM
- GI50 (SK-MEL-28 melanoma): 1530 nM
- TGI (SK-MEL-28 melanoma): 2890 nM
- GI50 (UACC-257 melanoma): 1950 nM
- TGI (UACC-257 melanoma): 3570 nM
- GI50 (NCI/ADR-RES ovarian): 2040 nM
- TGI (NCI/ADR-RES ovarian): 5760 nM
- GI50 (EKVX NSCLC): 1560 nM
- TGI (EKVX NSCLC): 3900 nM
- GI50 (SK-MEL-2 melanoma): 1660 nM
- TGI (SK-MEL-2 melanoma): 3140 nM
- GI50 (SF-268 CNS): 1580 nM
- TGI (SF-268 CNS): 3320 nM
- GI50 (SF-295 CNS): 1780 nM
- TGI (SF-295 CNS): 4120 nM

Compound: CN(C)c1ccc(-c2ccc(-c3ccc(C(=N)N)c(F)c3)s2)cc1
- GI50 (OVCAR-4 ovarian): 1870 nM
- TGI (OVCAR-4 ovarian): 3500 nM
- GI50 (MDA-MB-435): 1650 nM
- TGI (MDA-MB-435): 3170 nM
- GI50 (SW-620 colon): 1480 nM
- TGI (SW-620 colon): 3070 nM
- GI50 (RPMI-8226 leukemia): 1910 nM
- TGI (RPMI-8226 leukemia): 4480 nM
- GI50 (K-562 leukemia): 258 nM
- TGI (K-562 leukemia): 699 nM
- GI50 (CAKI-1 renal): 1590 nM
- TGI (CAKI-1 renal): 3110 nM
- GI50 (NCI-H460 lung): 1770 nM
- TGI (NCI-H460 lung): 3370 nM
- GI50 (DU-145 prostate): 1650 nM
- TGI (DU-145 prostate): 3180 nM
- GI50 (OVCAR-8 ovarian): 2230 nM
- TGI (OVCAR-8 ovarian): 5380 nM
- GI50 (CCRF-CEM leukemia): 329 nM
- TGI (CCRF-CEM leukemia): 1260 nM
- GI50 (A498 renal): 14.9 nM
- TGI (A498 renal): 1150 nM
- GI50 (SR leukemia): 244 nM
- TGI (SR leukemia): 692 nM
- GI50 (UACC-62 melanoma): 1830 nM
- TGI (UACC-62 melanoma): 3660 nM
- GI50 (HCT-116 colon): 1170 nM
- TGI (HCT-116 colon): 2600 nM
- GI50 (M14 melanoma): 1740 nM
- TGI (M14 melanoma): 3390 nM
- GI50 (OVCAR-3 ovarian): 1940 nM
- TGI (OVCAR-3 ovarian): 3590 nM
- GI50 (HOP-92 NSCLC): 1400 nM
- TGI (HOP-92 NSCLC): 3030 nM
- GI50 (UO-31 renal): 1540 nM
- TGI (UO-31 renal): 3050 nM
- GI50 (786-0 renal): 1870 nM
- TGI (786-0 renal): 3490 nM

Compound: NC(=O)c1ncn(CC2(CO)CCC2)c1N
- GI50 (SNB-75 CNS): 10800 nM

Compound: Cc1ccc(S(=O)(=O)OC[C@]23CCC(C)(C)C[C@H]2C2=CC[C@@H]4[C@@]5(C)CCCNC(C)(C)[C@@H]5CC[C@@]4(C)[C@]2(C)CC3)cc1
- GI50 (ACHN renal): 1690 nM
- TGI (ACHN renal): 3070 nM
- GI50 (SF-539 CNS): 1710 nM
- TGI (SF-539 CNS): 3150 nM
- GI50 (TK-10 renal): 1770 nM
- TGI (TK-10 renal): 3330 nM
- GI50 (RXF 393 renal): 1380 nM
- TGI (RXF 393 renal): 2780 nM
- GI50 (CAKI-1 renal): 1450 nM
- TGI (CAKI-1 renal): 2820 nM
- GI50 (DU-145 prostate): 1790 nM
- TGI (DU-145 prostate): 3370 nM
- GI50 (A498 renal): 5990 nM
- TGI (A498 renal): 21400 nM
- GI50 (SNB-75 CNS): 1480 nM
- TGI (SNB-75 CNS): 2940 nM
- GI50 (HS 578T breast): 1820 nM
- TGI (HS 578T breast): 4080 nM
- GI50 (SK-OV-3 ovarian): 1760 nM
- TGI (SK-OV-3 ovarian): 3260 nM
- GI50 (UO-31 renal): 1290 nM
- TGI (UO-31 renal): 2680 nM
- GI50 (NCI-H522 lung): 1690 nM
- TGI (NCI-H522 lung): 3380 nM
- GI50 (SK-MEL-2 melanoma): 2190 nM
- TGI (SK-MEL-2 melanoma): 4830 nM
- GI50 (SF-268 CNS): 2320 nM
- TGI (SF-268 CNS): 8440 nM
